Data as given in patent publication US20140057895A1, “INDAZOLE- AND PYRROLOPYRIDINE-DERIVATIVE AND PHARMACEUTICAL USE THEREOF” (priority 2011, published 2014).
Where a name gives a salt, the structure may show the parent alone.

Columns and labels:
human 5-HT4b receptor = molecular target: T1, human 5-HT4b receptor (Homo sapiens, UniProt Q13639); assay: Test Example 2: Serotonin 4 (5-HT4) receptor agonist activity assay, cAMP HTRF in CHO cells (Table 97); format: cell-based; conditions: cAMP in CHO cells expressing human 5-HT4b receptor, mean value; for Emax: 0.25 h, intrinsic activity, maximal activity of 5-HT defined as 100%, read-out: IA (%); for EC50: concentration showing 50% of IA
T1 construct: expressed in transfected cells; host or cells: CHO cells (G418 selection)
Protocol: The cAMP measurement test used herein was carried out by using CISBIO HTRF (trademark) cAMP Hirange kit according to the manufacturer's instructions attached therewith.
CHO cells expressing human 5-HT4b receptor were incubated in Medium 1 [DMEM/1% NEAA, 1% penicillin/streptomycin (P/S), 0.2 mg/mL GENETICIN (G418), 10% FBS] at 37° C. under 5% CO2 condition. Then, the cells were put into Medium 2 (DMEM/10000 cut FBS, G-418, P/S, NEAA) for 1 to 2 hours, and collected by treating with trypsin containing EDTA. The collected cells were suspended in Assay Buffer 1 [100 mM Hanks/HEPES buffer (pH 7.4)], the suspended cells were mixed with the testing compound on 384-well plates, and the cells were incubated at 31° C. for 15 minutes. To the cells were added cAMP-cryptate solution and cAMP-d2 solution, and they were incubated at room temperature for 1 hour. Then, time-resolved fluorescence was measured by En Vision (excitation wavelength: 330 nm, fluorescence wavelength: 620/665 nm). An intrinsic activity of the compound [IA (%)] and a concentration showing 50% of IA [EC50 (nM)] were calculated from the obtained results. In particular, the intrinsic activity (IA) was calculated on the basis of the maximal activity of 5-HT (measured from 10^−11 M to 10^−7 M) defined as 100%.
(§1) In the following table, the compounds used in the test are shown in numbers which correspond to the Example numbers above where the preparations of the compounds are described.

5-HT4 receptor = molecular target: T2, 5-HT4 receptor (Cavia porcellus, UniProt O70528); assay: Test Example 1: Serotonin 4 (5-HT4) receptor binding assay, [3H]-GR113808, guinea pig striatum membranes (Table 96); conditions: Guinea pig 5-HT4 receptor binding assay, [3H]-GR113808, striatum membranes; mean value of each group
T2 construct: striatum was isolated which was cryopreserved at −80° C. until use; from tissue; host or cells: guinea pig (Slc-Hartley) striatum membranes
Protocol: The 5-HT4 receptor binding assay and preparations of receptor membrane preparations herein were carried out according to a method of Grossman et al. [see, British J. Pharmacol., (1993) 109, 618].
Slc-Hartley guinea pigs (body weight 300 g to 400 g) were decapitated to remove brain rapidly, and striatum was isolated which was cryopreserved at −80° C. until use. To the obtained tissues were added fifteen fold of Hepes buffer (50 mM, pH 7.4, 4° C.), and the mixture was homogenized by Teflon (trademark) homogenizer and centrifuged at 48,000×g (4° C.) for 15 minutes. To the resulting precipitate was added Hepes buffer (1 ml) to 30 mg by wet weight of tissues, and the mixture was suspended to give receptor membrane preparations.
To an assay tube were added 0.1 nM [^3H]-GR113808 {chemical name: [1-[2-(methylsulfonylamino)ethyl]-4-piperidinyl]methyl 1-methylindole-3-carboxylate}, receptor membrane preparations, and Hepes buffer (50 mM, pH 7.4, 4° C., 1 ml) containing test compounds or 30 μM serotonin; and the mixture was incubated at 37° C. for 30 minutes. On quenching the reaction, the mixture was rapidly filtered on whatman GF/B filter, which was presoaked in 0.1% polyethyleneimine for 1 hour, by using Brandel cell Harvester, and washed with ice-cooled 50 mM Tris-HCl (pH 7.7, 4 ml) three times. To the filter after filtration was added a liquid scintillator (Ecoscint), and then a radioactivity was determined by a liquid scintillation counter.
50% Inhibition concentrations (IC50) were determined from inhibition rates of test compounds to specific bindings which were obtained by subtracting nonspecific bindings from total binding amounts of [^3H]-GR113808.
as §1

T2 sequence (O70528 whole entry): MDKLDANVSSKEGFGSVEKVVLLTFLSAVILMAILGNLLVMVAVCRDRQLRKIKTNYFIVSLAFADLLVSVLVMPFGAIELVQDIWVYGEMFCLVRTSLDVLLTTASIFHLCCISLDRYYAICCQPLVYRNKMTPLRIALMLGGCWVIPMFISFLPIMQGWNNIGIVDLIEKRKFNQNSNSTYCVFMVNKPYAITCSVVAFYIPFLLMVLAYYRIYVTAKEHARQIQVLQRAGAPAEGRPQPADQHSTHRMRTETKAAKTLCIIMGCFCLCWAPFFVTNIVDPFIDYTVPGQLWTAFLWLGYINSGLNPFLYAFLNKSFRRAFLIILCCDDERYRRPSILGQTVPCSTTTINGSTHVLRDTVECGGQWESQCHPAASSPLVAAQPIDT
T1 sequence (Q13639 whole entry): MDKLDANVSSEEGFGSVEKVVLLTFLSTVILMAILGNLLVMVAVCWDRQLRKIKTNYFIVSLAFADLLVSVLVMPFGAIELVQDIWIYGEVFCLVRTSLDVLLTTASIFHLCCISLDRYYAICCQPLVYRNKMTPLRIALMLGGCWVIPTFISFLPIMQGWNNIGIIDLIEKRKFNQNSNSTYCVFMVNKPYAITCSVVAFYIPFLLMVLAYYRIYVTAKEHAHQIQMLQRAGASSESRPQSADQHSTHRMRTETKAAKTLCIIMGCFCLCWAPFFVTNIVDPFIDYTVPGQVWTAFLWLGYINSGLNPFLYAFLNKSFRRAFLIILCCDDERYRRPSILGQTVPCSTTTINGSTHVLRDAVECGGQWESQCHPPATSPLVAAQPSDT

Structure (SMILES) | Emax (human 5-HT4b receptor) [%] | EC50 (human 5-HT4b receptor) [nM] | IC50 (5-HT4 receptor) [nM]
CCc1nn(-c2noc(C3CN(C4CCN(C(=O)OC)CC4)C3)n2)c2ccccc12 [Example 257, methyl 4-{3-[3-(3-ethyl-1H-indazol-1-yl)-1,2,4-oxadiazol-5-yl]azetidin-1-yl}piperidine-1-carboxylate] | 48 | 60.7 | < 20
CCc1nn(-c2noc(C3CCN(C4CCN(C(C)=O)CC4)CC3)n2)c2c(F)cccc12 [Example 229, 1-{4-[3-(3-ethyl-7-fluoro-1H-indazol-1-yl)-1,2,4-oxadiazol-5-yl]-1,4′-bipiperidin-1′-yl}ethanone hydrochloride] | 55 | 2.9 | < 20
CCc1nn(-c2noc(C3CCN(CCCOC)CC3)n2)c2c(F)cccc12 [Example 95, 3-ethyl-7-fluoro-1-{5-[1-(3-methoxypropyl)piperidin-4-yl]-1,2,4-oxadiazol-3-yl}-1H-indazole] | 43 | 3.7 | < 20
CCc1nn(-c2noc(C3CCN(CC4CC4)CC3)n2)c2ccccc12 [Example 112, 1-{5-[1-(cyclopropylmethyl)piperidin-4-yl]-1,2,4-oxadiazol-3-yl}-3-ethyl-1H-indazole trifluoroacetate] | 73 | 24.9 | 26.4
CCc1nn(-c2noc(C3CCN(C4CCN(C(=O)OC)CC4)CC3)n2)c2cc(F)ccc12 [Example 230, methyl 4-[3-(3-ethyl-6-fluoro-1H-indazol-1-yl)-1,2,4-oxadiazol-5-yl]-1,4′-bipiperidine-1′-carboxylate] | 65 | 17.9 | 25.1
CCc1nn(-c2noc(C3CCN(C[C@@H]4CCCN4C(=O)OC)CC3)n2)c2ccccc12 [Example 178, methyl (2S)-2-({4-[3-(3-ethyl-1H-indazol-1-yl)-1,2,4-oxadiazol-5-yl]piperidin-1-yl}methyl)pyrrolidine-1-carboxylate] | 38 | 10.9 | < 20
CCc1nn(-c2noc(C3CCN(CC(C)C)CC3)n2)c2ccccc12 [Example 103, 3-ethyl-1-(5-[1-(2-methylpropyl)piperidin-4-yl]-1,2,4-oxadiazol-3-yl}-1H-indazole] | 59 | 11 | < 20
CCCN1CCC(c2nc(-n3nc(C(C)C)c4ccccc43)no2)CC1 [Example 117, 3-(propan-2-yl)-1-[5-(1-propylpiperidin-4-yl)-1,2,4-oxadiazol-3-yl]-1H-indazole trifluoroacetate] | 83 | 29.5 | 25.9
CCc1nn(-c2noc(C3CCN(CCCO)CC3)n2)c2ccccc12 [Example 261, 3-{4-[3-(3-ethyl-1H-indazol-1-yl)-1,2,4-oxadiazol-5-yl]piperidin-1-yl}propan-1-ol] | 84 | 6.2 | < 20
CCc1nn(-c2noc(C3CCN(C[C@@H]4CCN(C(=O)OCCF)C4)CC3)n2)c2ccccc12 [Example 195, 2-fluoroethyl (3S)-3-({4-[3-(3-ethyl-1H-indazol-1-yl)-1,2,4-oxadiazol-5-yl]piperidin-1-yl}methyl)pyrrolidine-1-carboxylate] | 49 | 31.4 | < 20
CCc1nn(-c2noc(C3CCN(C4CCOC4)CC3)n2)c2cc(F)ccc12 (stereo not drawn) [Example 138, 3-ethyl-6-fluoro-1-{5-[1-(tetrahydrofuran-3-yl)piperidin-4-yl]-1,2,4-oxadiazol-3-yl}-1H-indazole] | 67 | 22.4 | < 20
CCc1nn(-c2noc(C3CCN(CC4CCOCC4)CC3)n2)c2cc(F)ccc12 [Example 134, 3-ethyl-6-fluoro-1-{5-[1-(tetrahydro-2H-pyran-4-ylmethyl)piperidin-4-yl]-1,2,4-oxadiazol-3-yl}-1H-indazole] | 81 | 12.1 | 24.2
CC(C)CN1CCC(c2nc(-n3nc(C4CCC4)c4ccccc43)no2)CC1 [Example 115, 3-cyclobutyl-1-{5-[1-{2-methylpropyl)piperidin-4-yl]-1,2,4-oxadiazol-3-yl}-1H-indazole trifluoroacetate] | 58 | 153 | 40.2
CCc1nn(-c2noc(C3CCN(CC4CCCO4)CC3)n2)c2ccccc12 (stereo not drawn) [Example 132, 3-ethyl-1-{5-[1-(tetrahydrofuran-2-ylmethyl)piperidin-4-yl]-1,2,4-oxadiazol-3-yl}-1H-indazole] | 29 | 14.7 | < 20
COCCCN1CCC(c2nc(-n3nc(C(C)C)c4ccccc43)no2)CC1 [Example 85, 1-{5-[1-(3-methoxypropyl)piperidin-4-yl]-1,2,4-oxadiazol-3-yl}-3-(propan-2-yl)-1H-indazole] | 125 | 8.3 | 31.1
CCc1nn(-c2noc(C3CCN(CC4CCN(C(=O)OC)CC4)CC3)n2)c2cc(F)ccc12 [Example 171, methyl 4-({4-[3-(3-ethyl-6-fluoro-1H-indazol-1-yl)-1,2,4-oxadiazol-5-yl]piperidin-1-yl}methyl)piperidine-1-carboxylate] | 51 | 30.8 | 31.9
CCc1nn(-c2noc(C3CCN(C4CCN(C(C)=O)CC4)CC3)n2)c2cc(F)ccc12 [Example 228, 1-{4-[3-(3-ethyl-6-fluoro-1H-indazol-1-yl)-1,2,4-oxadiazol-5-yl]-1,4′-bipiperidin-1′-yl}ethanone hydrochloride] | 66 | 8.2 | 28.7
CCc1nn(-c2noc(C3CCN(CCCOC)CC3)n2)c2cc(F)ccc12 [Example 92, 3-ethyl-6-fluoro-1-{5-[1-(3-methoxypropyl)piperidin-4-yl]-1,2,4-oxadiazol-3-yl}-1H-indazole] | 92 | 6.5 | < 20
CC(C)CN1CCC(c2nc(-n3nc(C(C)C)c4ccccc43)no2)CC1 [Example 98, 1-{5-[1-(2-methylpropyl)piperidin-4-yl]-1,2,4-oxadiazol-3-yl}-3-(propan-2-yl)-1H-indazole trifluoroacetate] | 110 | 15.5 | 32.1
